Measurements: PubChem BioAssay (NCI)
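Briefly, cells in 96-well plates were exposed to five compound concentrations for 48 h, and endpoints were estimated by linear interpolation. TGI is the concentration that stops growth completely.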

Assays:
Experiment in all cases: inhibition of tumour cell growth, NCI panel, 48 h
[1] = test system: NCI-H226 lung
[2] = test system: SF-295 CNS
[3] = test system: PC-3 prostate
[4] = test system: MDA-N
[5] = test system: MDA-MB-231 breast
[6] = test system: UACC-62 melanoma
[7] = test system: HOP-92 NSCLC
[8] = test system: KM12 colon
[9] = test system: NCI-H460 lung
[10] = test system: HCC-2998 colon
[11] = test system: MCF7 breast
[12] = test system: IGROV1 ovarian
[13] = test system: DU-145 prostate
[14] = test system: SNB-19 CNS
[15] = test system: T-47D breast
[16] = test system: SR leukemia
[17] = test system: MOLT-4 leukemia
[18] = test system: UO-31 renal
[19] = test system: SN12C renal
[20] = test system: SF-539 CNS

Structure (SMILES)	TGI [1]	TGI [2]	TGI [3]	TGI [4]	TGI [5]	TGI [6]	TGI [7]	TGI [8]	TGI [9]	TGI [10]	TGI [11]	TGI [12]	TGI [13]	TGI [14]	TGI [15]	TGI [16]	TGI [17]	TGI [18]	TGI [19]	TGI [20]
COc1cccc(/C=C\c2ccc(O)cc2)c1	> 88.8 µM	> 100 µM	99.5 µM	> 100 µM	> 100 µM	> 100 µM	64.8 µM	33.3 µM	> 67.3 µM	> 62.8 µM	> 100 µM	> 100 µM	56.6 µM	> 100 µM	> 84.2 µM	20.1 µM	38.7 µM	33.7 µM	> 68.3 µM	53.1 µM
Nc1ccc(Sc2c3ccccc3nc3ccccc23)cc1	58.4 µM	47.5 µM	25.7 µM	38.5 µM	28.1 µM	30.5 µM	> 38 µM	40.4 µM	49.5 µM	59.5 µM	28.8 µM	37.6 µM	28.7 µM	51.6 µM	5.6 µM	32.4 µM	27.1 µM	34.3 µM	36.1 µM	31 µM
C#CC1NC(=O)C1N(CC)CC (stereo not drawn)	> 100 µM	> 100 µM	> 100 µM	> 100 µM	> 100 µM	> 100 µM	> 100 µM	> 100 µM	> 100 µM	> 100 µM	> 100 µM	> 100 µM	> 100 µM	> 100 µM	> 100 µM	> 100 µM	> 100 µM	> 100 µM	> 100 µM	> 100 µM
COc1ccc(/C=C/C(=O)c2ccc(OC(=O)/C=C/c3ccccc3)cc2)cc1	> 100 µM	> 64 µM	> 100 µM	> 100 µM	> 87.2 µM	> 63.7 µM	> 100 µM	26.4 µM	97.8 µM	32.8 µM	> 100 µM	> 77.7 µM	> 74.2 µM	> 63.4 µM	62.8 µM	16.9 µM	50.6 µM	> 91.5 µM	> 69.7 µM	> 53.5 µM
Cc1ccc(N=C2C(c3ccccc3)=C(SC3=C(c4ccccc4)C(=Nc4ccc(C)cc4)c4ccccc43)c3ccccc32)cc1	> 63.1 µM	27.4 µM	> 100 µM	> 100 µM	38.7 µM	> 51.7 µM	33.2 µM	> 100 µM	36.3 µM	> 54.1 µM	> 100 µM	45.5 µM	> 100 µM	17.1 µM	> 100 µM	> 100 µM	> 100 µM	33.3 µM	77.1 µM	24.6 µM
NC(=O)C(=CNC(=S)Nc1cccc(C(F)(F)F)c1)C(N)=O	> 100 µM	> 100 µM	> 100 µM	> 100 µM	> 100 µM	> 100 µM	> 100 µM	> 100 µM	> 100 µM	> 100 µM	> 100 µM		> 100 µM	> 100 µM	> 100 µM	> 100 µM	> 100 µM	> 100 µM	> 100 µM	> 100 µM
CCCCCCCCC/C=C1/CC(CO)(COC(=O)c2ccccc2)OC1=O (stereo not drawn)	22.9 µM	21.9 µM	23.1 µM	20.6 µM	26.3 µM	28.1 µM	14.4 µM	30.6 µM	22 µM	27.8 µM	30.5 µM	29.6 µM	25.5 µM	29.1 µM	25.1 µM	54 µM	29.9 µM	27.2 µM	26.4 µM	34.8 µM
O=C1C(S(=O)(=O)c2ccccc2)=C(CS(=O)(=O)c2ccccc2)[C@@H](OCc2ccccc2)[C@@H]1OCc1ccccc1	37.3 µM	40.4 µM	85.8 µM	88.7 µM	60 µM	40 µM	32.7 µM	27.4 µM	50.5 µM	36.3 µM	> 100 µM	33.8 µM	> 100 µM	> 100 µM	> 100 µM	33.5 µM	46.7 µM	37.1 µM	76.4 µM	40.6 µM
COc1cc(/C=N/NC2=NCCCCN2)ccc1O	> 100 µM	> 100 µM	> 100 µM	> 100 µM	> 100 µM	> 100 µM	> 100 µM	> 100 µM	> 100 µM	> 100 µM	> 100 µM	> 100 µM	> 100 µM	> 100 µM	> 100 µM	> 100 µM	> 100 µM	> 100 µM	> 100 µM	> 100 µM
CC1=NN(c2nc(N)nc(/C(C#N)=C\c3cccc([N+](=O)[O-])c3)n2)C(C)(C)C1	> 42.7 µM	52 µM	> 53.8 µM	> 33.3 µM	25.1 µM	> 40.2 µM	> 100 µM	> 48.1 µM	19.7 µM	22.2 µM	> 23 µM	34.1 µM	50.8 µM	88.5 µM	64.8 µM	> 73.1 µM	> 66.5 µM	15.7 µM	> 65.3 µM	36.5 µM
O=c1oc2ccc3ccccc3c2cc1-c1nc2ccc([N+](=O)[O-])cc2o1	> 100 µM	> 49.5 µM	> 100 µM	> 100 µM	> 100 µM	> 100 µM	> 91 µM	> 100 µM	> 100 µM	> 100 µM	> 31.4 µM	> 100 µM	> 100 µM	> 28.6 µM	> 100 µM	> 100 µM	> 100 µM	> 92.1 µM	> 100 µM	26.3 µM
CCO/C(Cc1ccc(Cl)cc1)=N/NC(N)=S	> 100 µM	> 100 µM	> 100 µM	> 100 µM	> 100 µM	> 100 µM	> 100 µM	> 100 µM	> 100 µM	> 100 µM	> 100 µM	> 100 µM	> 100 µM	> 100 µM	> 100 µM	> 100 µM	> 100 µM	> 100 µM	> 100 µM	> 100 µM
O=C1/C(=C/c2ccc(Cl)cc2)CSC/C1=C\c1ccc(Cl)cc1	5.59 µM	4.21 µM	16 µM	10.6 µM	27.2 µM	2.83 µM	43.2 µM	4.47 µM	30.5 µM	4.09 µM	13.1 µM	3.65 µM	24.8 µM	17 µM	23.2 µM	8.15 µM	9 µM	3.93 µM	9.52 µM	9.26 µM
O=c1c2c(F)c(F)c(F)c(F)c2sc2nccn12	52.3 µM	36.3 µM	35.9 µM	29.4 µM	35.9 µM	31.8 µM	39.4 µM	32.2 µM	27.3 µM	31.9 µM	37.9 µM	32.3 µM	41.9 µM	35.9 µM	24.2 µM	18.7 µM	9.62 µM		33.3 µM	31.4 µM
C=CC1(C)OC2(CCN(C(=O)OCC)CC2)OC1C (stereo not drawn)	> 100 µM	> 100 µM	> 100 µM	> 100 µM	> 100 µM	> 100 µM	> 100 µM	> 100 µM	> 100 µM	> 100 µM	> 100 µM	> 100 µM	> 100 µM	> 100 µM	> 100 µM	> 100 µM	> 100 µM	> 100 µM		> 100 µM
CC1C(c2ccccc2O)c2cc3c(cc2OC1N1CCOCC1)OCO3 (stereo not drawn)	77.4 µM	62 µM	> 100 µM	> 100 µM	73.9 µM	90.2 µM	71.1 µM	91.6 µM	49.2 µM	64.3 µM	> 100 µM	> 100 µM	> 100 µM	> 100 µM	> 100 µM	29.5 µM	83.7 µM	> 100 µM	> 100 µM	46.5 µM
CC(=O)/C(C=Nc1c(C)n(C)n(C)c1=O)=C(/O)c1ccccc1	> 50 µM	> 50 µM	> 50 µM	> 50 µM	> 50 µM	> 50 µM	> 50 µM		> 50 µM	> 50 µM	> 50 µM	> 50 µM	> 50 µM	> 50 µM	> 50 µM	> 50 µM	> 50 µM	> 50 µM	> 50 µM	> 50 µM
COc1cc2ccc1OCc1cccc(n1)COc1ccc(cc1OC)C=NCCNCCN=C2	> 100 µM	> 100 µM	> 100 µM	> 100 µM	> 100 µM		> 100 µM		> 100 µM	> 100 µM	> 100 µM	> 100 µM	> 100 µM	> 100 µM	> 100 µM	> 100 µM	> 100 µM	> 100 µM	> 100 µM	> 100 µM
Cc1nnc(Sc2nc(C#N)c(C#N)nc2Sc2nnc(C)s2)s1	64.1 µM	73.8 µM	30.7 µM	49.7 µM	37.9 µM	34.9 µM	7.65 µM	> 72 µM	> 76.1 µM	51.8 µM	25.3 µM	21.3 µM	36.6 µM	54.6 µM	12.9 µM	> 26.4 µM	5.47 µM	23.9 µM	26.4 µM	> 60.1 µM
CCCCc1c2c(c(C)c3c1C(=O)OC3)Oc1ccccc1O2	> 81.1 µM	> 51.4 µM	> 34.8 µM	0.456 µM	> 55.6 µM	> 100 µM	> 100 µM	> 100 µM	18.2 µM	3.22 µM	> 100 µM	> 100 µM	> 43.8 µM	> 75 µM	> 100 µM	> 40.1 µM	> 100 µM	> 100 µM	38.3 µM	3.67 µM
COc1ccc(C(=O)/C=C/c2ccc(OCC(=N)N)cc2)cc1	34.1 µM	30 µM	27.9 µM	31.4 µM	27.8 µM	29 µM	28.5 µM	25.8 µM		30.4 µM	26.8 µM	40.8 µM	25.4 µM	29.2 µM	26.5 µM	25.9 µM	30.9 µM	34.1 µM	26.7 µM	29.6 µM
O=C1c2ccccc2C(=O)c2c(NCCCN3CCOCC3)ccc(NCCCN3CCOCC3)c21	31.5 µM	11.4 µM	12.9 µM	13.6 µM	13.8 µM	6.05 µM	15.9 µM	20.5 µM	4.61 µM	27 µM	24.4 µM	29.4 µM	52.6 µM	41 µM	83.9 µM	> 100 µM	19.8 µM	17.4 µM	17.2 µM	4.03 µM
O=C1C=CC2(C=C1)C[C@H](NC(=O)OCc1ccccc1)C(=O)O2	> 86.7 µM	49.5 µM	29.9 µM	28.9 µM	32.6 µM	31.9 µM	29.9 µM	35.7 µM	59.9 µM	40.8 µM	25.1 µM	38.1 µM	85.3 µM	> 100 µM	49.9 µM	4.33 µM	15.3 µM	39.9 µM	32.7 µM	44.5 µM
CC1(C)C2CCC(O)(C2)C1N (stereo not drawn)	> 100 µM	> 100 µM	> 100 µM	> 100 µM	> 100 µM	> 100 µM	> 100 µM	> 100 µM	> 100 µM	> 100 µM	> 100 µM	> 100 µM	> 100 µM	> 100 µM	> 100 µM	> 100 µM	> 100 µM	> 100 µM	> 100 µM	> 100 µM
